Measurements reported in the supplement of paper PMC10307832.

How the values were obtained:
Test in all cases: relative viability (nuclei count vs DMSO), 5 days (fraction); higher = more cells survive
201T = tested on: 201T
Procedure, shortened: (§1)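 Medians of duplicate plates are given as relative viability. That measure is the nuclei count in treated wells divided by the count in vehicle wells. Counts were taken on 4× images of lung cancer cell lines in 1536-well plates, 5 days after pin-tool dosing the day after seeding with one drug alone or a fixed anchor-drug dose plus five library-drug doses (not always all listed) in √10 steps.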

COR-L23 = tested on: COR-L23
Procedure, shortened: as §1

EPLC-272H = tested on: EPLC-272H
Procedure, shortened: as §1

H3255 = tested on: H3255
Procedure, shortened: as §1

HCC-15 = tested on: HCC-15
Procedure, shortened: as §1

LOU-NH91 = tested on: LOU-NH91
Procedure, shortened: as §1

NCI-H1563 = tested on: NCI-H1563
Procedure, shortened: as §1

NCI-H1650 = tested on: NCI-H1650
Procedure, shortened: as §1

NCI-H1734 = tested on: NCI-H1734
Procedure, shortened: as §1

NCI-H1793 = tested on: NCI-H1793
Procedure, shortened: as §1

NCI-H2023 = tested on: NCI-H2023
Procedure, shortened: as §1

## CC(=O)O[C@@]12CO[C@@H]1C[C@H](O)[C@@]1(C)C(=O)[C@H](O)C3=C(C)[C@@H](OC(=O)[C@H](O)[C@@H](NC(=O)OC(C)(C)C)c4ccccc4)C[C@@](O)([C@@H](OC(=O)c4ccccc4)[C@H]21)C3(C)C [Docetaxel] + Nc1nc2[nH]cc(CCc3ccc(C(=O)N[C@@H](CCC(=O)O)C(=O)O)cc3)c2c(=O)[nH]1 [Pemetrexed] (partner 0.2 µM)
201T; first compound 0.0002 µM
  relative viability: 0.36
201T; first compound 0.000632 µM
  relative viability: 0.32
201T; first compound 0.002 µM
  relative viability: 0.312
201T; first compound 0.006325 µM
  relative viability: 0.424
201T; first compound 0.02 µM
  relative viability: 0.255
COR-L23; first compound 0.0002 µM
  relative viability: 0.189
COR-L23; first compound 0.000632 µM
  relative viability: 0.184
COR-L23; first compound 0.002 µM
  relative viability: 0.186
COR-L23; first compound 0.006325 µM
  relative viability: 0.167
EPLC-272H; first compound 0.0002 µM
  relative viability: 0.298
EPLC-272H; first compound 0.000632 µM
  relative viability: 0.187
EPLC-272H; first compound 0.002 µM
  relative viability: 0.139
EPLC-272H; first compound 0.006325 µM
  relative viability: 0.0965
EPLC-272H; first compound 0.02 µM
  relative viability: 0.111
H3255; first compound 0.0002 µM
  relative viability: 0.494
H3255; first compound 0.000632 µM
  relative viability: 0.595
H3255; first compound 0.002 µM
  relative viability: 0.437
H3255; first compound 0.006325 µM
  relative viability: 0.368
H3255; first compound 0.02 µM
  relative viability: 0.359
HCC-15; first compound 0.0002 µM
  relative viability: 0.235
HCC-15; first compound 0.000632 µM
  relative viability: 0.242
HCC-15; first compound 0.002 µM
  relative viability: 0.262
HCC-15; first compound 0.006325 µM
  relative viability: 0.273
HCC-15; first compound 0.02 µM
  relative viability: 0.181
LOU-NH91; first compound 0.0002 µM
  relative viability: 0.373
LOU-NH91; first compound 0.000632 µM
  relative viability: 0.367
LOU-NH91; first compound 0.002 µM
  relative viability: 0.311
LOU-NH91; first compound 0.006325 µM
  relative viability: 0.338
LOU-NH91; first compound 0.02 µM
  relative viability: 0.312
NCI-H1563; first compound 0.0002 µM
  relative viability: 0.701
NCI-H1563; first compound 0.000632 µM
  relative viability: 0.843
NCI-H1563; first compound 0.002 µM
  relative viability: 0.69
NCI-H1563; first compound 0.006325 µM
  relative viability: 0.608
NCI-H1563; first compound 0.02 µM
  relative viability: 0.374
NCI-H1650; first compound 0.0002 µM
  relative viability: 0.387
NCI-H1650; first compound 0.000632 µM
  relative viability: 0.412
NCI-H1650; first compound 0.002 µM
  relative viability: 0.28
NCI-H1650; first compound 0.006325 µM
  relative viability: 0.263
NCI-H1650; first compound 0.02 µM
  relative viability: 0.158
NCI-H1734; first compound 0.0002 µM
  relative viability: 0.425
NCI-H1734; first compound 0.000632 µM
  relative viability: 0.521
NCI-H1734; first compound 0.002 µM
  relative viability: 0.405
NCI-H1734; first compound 0.006325 µM
  relative viability: 0.303
NCI-H1734; first compound 0.02 µM
  relative viability: 0.239
NCI-H1793; first compound 0.0002 µM
  relative viability: 0.842
NCI-H1793; first compound 0.000632 µM
  relative viability: 0.603
NCI-H1793; first compound 0.002 µM
  relative viability: 0.251
NCI-H1793; first compound 0.006325 µM
  relative viability: 0.271
NCI-H1793; first compound 0.02 µM
  relative viability: 0.188
NCI-H2023; first compound 0.0002 µM
  relative viability: 0.208
NCI-H2023; first compound 0.000632 µM
  relative viability: 0.197
NCI-H2023; first compound 0.002 µM
  relative viability: 0.144
NCI-H2023; first compound 0.006325 µM
  relative viability: 0.124
